Laboratory results from patent publication US7592347B2, “Piperazine derivates and their use for the treatment of neurological and psychiatric diseases” (Glaxo Group Limited, priority 2003, dated 2009).
Structures can show the parent of a compound that is named as a salt.

Target: T1, histamine H3 receptor (Homo sapiens, UniProt Q9Y5N1)
T1 construct: expressed in transfected cells; host or cells: CHO K1 cells carrying pSwitch, transfected with pGeneH3 and induced with mifepristone; clone 3H3; membranes
T1 sequence (Q9Y5N1 whole entry): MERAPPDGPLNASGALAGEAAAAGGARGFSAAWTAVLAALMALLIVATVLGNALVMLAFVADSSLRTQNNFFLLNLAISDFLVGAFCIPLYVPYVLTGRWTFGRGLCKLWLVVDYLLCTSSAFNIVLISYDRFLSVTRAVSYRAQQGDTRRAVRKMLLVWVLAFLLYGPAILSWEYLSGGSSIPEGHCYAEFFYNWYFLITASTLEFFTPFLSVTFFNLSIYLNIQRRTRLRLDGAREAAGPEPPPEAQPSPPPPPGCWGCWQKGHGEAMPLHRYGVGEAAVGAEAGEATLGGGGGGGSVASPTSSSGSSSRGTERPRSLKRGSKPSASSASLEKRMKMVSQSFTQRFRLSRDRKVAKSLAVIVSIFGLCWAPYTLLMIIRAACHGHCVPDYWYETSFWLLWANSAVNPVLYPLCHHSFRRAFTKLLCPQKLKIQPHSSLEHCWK
Experiment: Histamine H3 functional antagonist assay ([35S]GTPγS SPA, membranes of CHO K1 cells expressing human H3)
Format: biochemical
Conditions: functional antagonism of histamine (0.3 μM) stimulated [35S]GTPγS binding, membranes of CHO K1 cells with human histamine H3
Description: A membrane preparation containing histamine H3 receptors may be prepared in accordance with the following procedures:
Ligated DNA was transformed into competent DH5α E. coli host bacterial cells and plated onto Luria Broth (LB) agar containing Zeocin™ (an antibiotic which allows the selection of cells expressing the sh ble gene which is present on pGene and pSwitch) at 50 μg ml^−1. Colonies containing the re-ligated plasmid were identified by restriction analysis. DNA for transfection into mammalian cells was prepared from 250 ml cultures of the host bacterium containing the pGeneH3 plasmid and isolated using a DNA preparation kit (Qiagen Midi-Prep) as per manufacturers guidelines (Qiagen).
CHO K1 cells previously transfected with the pSwitch regulatory plasmid (InVitrogen) were seeded at 2×10e6 cells per T75 flask in Complete Medium, containing Hams F12 (GIBCOBRL, Life Technologies) medium supplemented with 10% v/v dialysed foetal bovine serum, L-glutamine, and hygromycin (100 μg ml^−1), 24 hours prior to use. Plasmid DNA was transfected into the cells using Lipofectamine plus according to the manufacturers guidelines (InVitrogen). 48 hours post transfection cells were placed into complete medium supplemented with 500 μg ml^−1 Zeocin™.
10-14 days post selection 10 nM Mifepristone (InVitrogen), was added to the culture medium to induce the expression of the receptor. […] Approximately 1×10e7 cells were examined for receptor expression by staining with a rabbit polyclonal antibody, 4a, raised against the N-terminal domain of the histamine H3 receptor, incubated on ice for 60 minutes, followed by two washes in sorting medium. […] Following two further washes with Sorting Medium, cells were filtered through a 50 μm Filcon™ (BD Biosciences) and then analysed on a FACS Vantage SE Flow Cytometer fitted with an Automatic Cell Deposition Unit. […] Positively stained cells were sorted as single cells into 96-well plates, containing Complete Medium containing 500 μg ml^−1 Zeocin™ and allowed to expand before reanalysis for receptor expression via antibody and ligand binding studies.
All steps of the protocol are carried out at 4° C. and with pre-cooled reagents. The cell pellet is resuspended in 10 volumes of buffer A2 containing 50 mM N-2-hydroxyethylpiperazine-N′-2-ethanesulfonic acid (HEPES)(pH 7.40) supplemented with 10e−4M leupeptin (acetyl-leucyl-leucyl-arginal; Sigma L2884), 25 μg/ml bacitracin (Sigma B0125), 1 mM ethylenediamine tetra-acetic acid (EDTA), 1 mM phenylmethylsulfonyl fluoride (PMSF) and 2×10e−6M pepstain A (Sigma). The cells are then homogenised by 2×15 second bursts in a 1 litre glass Waring blender, followed by centrifugation at 500 g for 20 minutes. The supernatant is then spun at 48,000 g.for 30 minutes. The pellet is resuspended in 4 volumes of buffer A2 by vortexing for 5 seconds, followed by homogenisation in a Dounce homogeniser (10-15 strokes). At this point the preparation is aliquoted into polypropylene tubes and stored at −70° C. […]
The plate is then incubated on a shaker at room temperature for 30 minutes followed by centrifugation for 5 minutes at 1500 rpm. The plate is read between 3 and 6 hours after completion of centrifuge run in a Wallac Microbeta counter on a 1 minute normalised tritium count protocol. Data is analysed using a 4-parameter logistic equation. Basal activity used as minimum i.e. histamine not added to well.

Compound	Kb [nM]
N#Cc1ccc(N2CCC(C(=O)N3CCCN(C4CCC4)CC3)CC2)nc1 [Example E37, 1-Cyclobutyl-4-[1-(5-cyanopyridin-2-yl)-piperidine4-carbonyl]-[1,4]-diazepane]	< 1
CC(C)N1CCN(C(=O)C2CCN(c3ccc(C(=O)C4CC4)cc3)CC2)CC1 [Example E105, 1-Isopropyl-4-[1-(4-cyclopropylcarbonylphenyl)-piperidine4-carbonyl]-piperazine]	< 3.16
N#Cc1ccc(N2CCC(C(=O)N3CCN(C4CCC4)CC3)CC2)cc1C(F)(F)F [Example E12, 1-Cyclobutyl-4-[1-(4-cyano-3-trifluoromethylphenyl)-piperidine-4-carbonyl]-piperazine]	< 3.16
Cc1noc(-c2ccc(N3CCC(C(=O)N4CCCN(C(C)C)CC4)CC3)cc2)n1 [Example E168, 1-Isopropyl-4-{1-[4-(3-methyl-1,2,4-oxadiazol-5-yl)phenyl]-piperidine-4-carbonyl}-[1,4]-diazepane]	< 3.16

The remaining lines, values ahead:

Kb [nM]	Compound
< 1	CC(C)N1CCCN(C(=O)C2CCN(c3ccc(C#N)cc3)CC2)CC1 [Example E38, 1-Isopropyl-4-[1-(4-cyanophenyl)-piperidine4-carbonyl]-[1,4]-diazepane]
< 3.16	N#Cc1ccc(N2CCC(C(=O)N3CCCN(C4CCC4)CC3)CC2)cc1Cl [Example E66, 1-Cyclobutyl-4-[1-(4-cyano-3-chlorophenyl)-piperidine4-carbonyl]-[1,4]-diazepane]
< 3.16	COc1ccc(N2CCC(C(=O)N3CCCN(C(C)C)CC3)CC2)cn1 [Example E62, 1-Isopropyl-4-[1-(6-methoxypyridin-3-yl)-piperidine-4-carbonyl]-[1,4]-diazepane]
< 3.16	C[C@@H]1CN(C(=O)C2CCN(c3ccc(C#N)cc3)CC2)C[C@H](C)N1C1CCC1 [Example E33, (2R,6S)-1-Cyclobutyl-4-[1-(4-cyanophenyl)-piperidine-4-carbonyl]-2,6-dimethylpiperazine hydrochloride]
< 1	CC(C)N1CCN(C(=O)C2CCN(c3ccc(C#N)cc3)CC2)CC1 [Example E2, 1-Isopropyl-4-[1-(4-cyanophenyl)-piperidine-4-carbonyl]-piperazine hydrochloride]
